The results in this text go back to ChEMBL document CHEMBL1135375, “Synthesis and biological activities of YkFA analogues: effects of position 4 substitutions and altered ring size on in vitro opioid activity” (Bioorg Med Chem Lett, 2002).

Test [1] concerns the target Delta-type opioid receptor (Mus musculus, UniProt P32300). The test can be described thus: Concentration required for 50% inhibition of electrically induced contraction of the mouse vas deferens mediated through delta opioid receptor. The test is classed as functional.
The next test has as its target Mu-type opioid receptor (Cavia porcellus, UniProt P97266). The test can be described thus: Concentration required for 50% inhibition of electrically induced contraction of the guinea pig ileum mediated through mu opioid receptor. The test is classed as functional, tissue-based.
In test [2] the test system is Opioid receptors; mu & delta. The test can be described thus: Selectivity ratio against mu opioid receptor to that of delta opioid receptor was determined.

Chain of Mu-type opioid receptor (P97266 whole entry): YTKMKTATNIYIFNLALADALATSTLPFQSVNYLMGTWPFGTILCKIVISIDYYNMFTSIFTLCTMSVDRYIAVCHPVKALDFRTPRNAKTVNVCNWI
Chain of Delta-type opioid receptor (P32300 whole entry): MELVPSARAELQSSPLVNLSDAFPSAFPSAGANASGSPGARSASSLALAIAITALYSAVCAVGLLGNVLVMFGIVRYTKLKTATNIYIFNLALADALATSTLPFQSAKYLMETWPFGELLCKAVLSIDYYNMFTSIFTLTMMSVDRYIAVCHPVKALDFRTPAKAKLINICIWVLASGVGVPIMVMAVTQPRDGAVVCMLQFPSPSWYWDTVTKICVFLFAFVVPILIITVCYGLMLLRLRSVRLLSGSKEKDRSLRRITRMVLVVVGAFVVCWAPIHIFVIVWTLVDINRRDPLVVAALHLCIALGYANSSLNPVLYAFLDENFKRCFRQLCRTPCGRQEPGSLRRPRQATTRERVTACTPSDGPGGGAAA

Consider `CC(C)[C@@H]1NC(=O)[C@H](Cc2ccccc2)NC(=O)[C@@H](CCCCN)N(C(=O)[C@@H](N)Cc2ccc(O)cc2)C1=O`, for which the 50% inhibitory concentration (IC50) in test [1] is 0.44 nM; on Mu-type opioid receptor, 0.2 nM.

As for `NCCCC[C@@H]1C(=O)N[C@@H](Cc2ccccc2)C(=O)N[C@@H](CC(=O)O)C(=O)N1C(=O)[C@@H](N)Cc1ccc(O)cc1`, the IC50 in test [1] amounted to 73.8 nM; against Mu-type opioid receptor, 78.8 nM.

On to `C[C@H]1NC(=O)[C@H](Cc2ccccc2)NC(=O)[C@H](CCN)N(C(=O)[C@@H](N)Cc2ccc(O)cc2)C1=O`, for which the Ratio in test [2] came out at 12.

For `CC(C)[C@H]1NC(=O)[C@H](Cc2ccccc2)NC(=O)[C@H](CCCCN)N(C(=O)[C@@H](N)Cc2ccc(O)cc2)C1=O`, the Ratio in test [2] worked out at 2.2.

As to `C[C@H]1NC(=O)[C@H](Cc2ccccc2)NC(=O)[C@H](CCCCN)N(C(=O)[C@@H](N)Cc2ccc(O)cc2)C1=O`, the Ratio in test [2] turned out to be 4.9.

With `CC[C@H](C)[C@@H]1NC(=O)[C@H](Cc2ccccc2)NC(=O)[C@@H](CCCCN)N(C(=O)[C@@H](N)Cc2ccc(O)cc2)C1=O`, the 50% inhibitory concentration (IC50) in test [1] was determined as 6.3 nM; on Mu-type opioid receptor, 1.1 nM.

On to `CC(C)C[C@H]1NC(=O)[C@H](Cc2ccccc2)NC(=O)[C@H](CCCCN)N(C(=O)[C@@H](N)Cc2ccc(O)cc2)C1=O`, for which the Ratio in test [2] is 4.5.

Turning to `C[C@@H]1NC(=O)[C@H](Cc2ccccc2)NC(=O)[C@@H](CCCCN)N(C(=O)[C@@H](N)Cc2ccc(O)cc2)C1=O`, the half-inhibitory concentration (IC50) is 0.54 nM in test [1] and 0.11 nM on Mu-type opioid receptor.

In the case of `C[C@@H]1NC(=O)[C@H](Cc2ccccc2)NC(=O)[C@@H](CCN)N(C(=O)[C@@H](N)Cc2ccc(O)cc2)C1=O`, the IC50 in test [1] amounted to 40 nM; at Mu-type opioid receptor, 3.5 nM.

In the case of `CC(C)C[C@@H]1NC(=O)[C@H](Cc2ccccc2)NC(=O)[C@@H](CCCCN)N(C(=O)[C@@H](N)Cc2ccc(O)cc2)C1=O`, the half-maximal inhibitory concentration (IC50) in test [1] was 6.2 nM; against Mu-type opioid receptor, 1.4 nM.

`CC[C@@H](C)[C@H]1NC(=O)[C@H](Cc2ccccc2)NC(=O)[C@H](CCCCN)N(C(=O)[C@@H](N)Cc2ccc(O)cc2)C1=O`: the Ratio in test [2] is 6.

With `C[C@H]1NC[C@H](Cc2ccccc2)NC(=O)[C@H](CCN)N(C(=O)[C@@H](N)Cc2ccc(O)cc2)C1=O`, the IC50 in test [1] came out at 252 nM; at Mu-type opioid receptor it was 21.4 nM. Besides, the Ratio in test [2] came out at 12.

`NCCCC[C@H]1C(=O)N[C@@H](Cc2ccccc2)C(=O)N[C@H](CC(=O)O)C(=O)N1C(=O)[C@@H](N)Cc1ccc(O)cc1`: in test [2], the Ratio came out at 0.94.
